Several values for one entry are separate records, joined by “and”; a condition that tells them apart may be missing. Equal values may be shown once.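 Dose response: 5 concentrations. Exposure: 48 h. Format: 96-well plates. Endpoint: linear interpolation; highest concentration if not reached. Here, GI50 denotes the concentration required for 50% inhibition of growth. TGI is the concentration that stops growth completely.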
Columns and labels:
Experiment in all cases: inhibition of tumour cell growth, NCI panel, 48 h
[1] = test system: HCT-116 colon
[2] = test system: DMS 273 small cell lung
[3] = test system: XF 498 CNS
[4] = test system: HCT-15 colon
[5] = test system: TK-10 renal
[6] = test system: A498 renal
[7] = test system: DLD-1 colon
[8] = test system: SK-MEL-5 melanoma
[9] = test system: KM12 colon
[10] = test system: MDA-MB-435

Work on O=C1C=CC(=O)C2=C1[C@@H](O)C1CC=CC3C(=O)O[C@@H]2C31 (stereo not given in full) yielded a TGI [1] of 39.7 µM, a TGI [2] of 49.4 µM and a TGI [3] of 42.1 µM. It also gave a TGI [4] of 44.1 µM, a TGI [5] of over 58.1 µM and a TGI [6] of over 100 µM. The TGI [7] was 37.9 µM, the TGI [8] was 41.2 µM and the TGI [9] was 41.2 µM.

O=C1/C(=C/c2ccccc2)CN(C(=O)CCN2CCOCC2)C/C1=C\c1ccccc1 gave a TGI [1] of 2.04 µM, a TGI [2] of 4.04 µM and a TGI [4] of 4.96 µM. For the same molecule, the TGI [10] was 3.58 µM, the TGI [5] was 24.3 µM and the TGI [6] was 25.5 µM. It also gave a TGI [7] of 4.28 µM, a TGI [8] of 4.99 µM and a TGI [9] of 2.99 µM.

For N/N=C(/C(=O)Nc1cccc(Cl)c1)C(C(=O)c1ccc(O)cc1O)C1OC(=O)c2ccccc21 (stereo not given), the TGI [1] was over 100 µM, the TGI [2] was over 100 µM and the TGI [4] was over 100 µM. The TGI [5] was over 100 µM, the TGI [6] was over 100 µM and the TGI [8] was over 100 µM. It also gave a TGI [9] of over 100 µM.

Molecule CC(CN(C)C)/C(=N\Nc1ccccc1)c1ccccc1 (stereo not given) has a TGI [1] of over 100 µM, a TGI [2] of 12.1 µM and a TGI [4] of 11.1 µM. The TGI [5] was 5.56 µM, the TGI [6] was over 100 µM and the TGI [7] was over 100 µM. For the same molecule, the TGI [8] was 17.5 µM and the TGI [9] was 14.4 µM.

CSc1nnc(CCC(=O)Nc2c(C)cccc2C)o1 gave a TGI [1] of over 100 µM, a TGI [3] of over 100 µM and a TGI [4] of over 100 µM. The TGI [5] was over 100 µM, the TGI [6] was over 100 µM and the TGI [7] was over 100 µM. For the same molecule, the TGI [8] was over 100 µM and the TGI [9] was over 100 µM.

Work on C=C/C=C/NC(=O)OCc1ccccc1 yielded a TGI [1] of over 100 µM, a TGI [2] of over 100 µM and a TGI [3] of over 100 µM. For the same molecule, the TGI [5] was over 100 µM, the TGI [7] was over 100 µM and the TGI [8] was over 100 µM. For the same molecule, the TGI [9] was over 100 µM.

Molecule CC(C)(C)C(=O)OCC1C(=O)OCC1C(=O)N1Cc2cc3ccccc3nc2C1 (stereo not given) has a TGI [1] of 5.28 µM, a TGI [2] of 12.7 µM and a TGI [4] of 6.36 µM. It also gave a TGI [10] of 15.7 µM, a TGI [5] of 6.35 µM and a TGI [6] of 26 µM. For the same molecule, the TGI [7] was 3.15 µM, the TGI [8] was 28.5 µM and the TGI [9] was 29.8 µM.

With CC(=O)Nc1ccc(S(=O)(=O)N/N=C/CN2C(=O)c3ccccc3C2=O)cc1 the TGI [1] was over 100 µM, the TGI [2] was over 100 µM and the TGI [3] was over 100 µM. For the same molecule, the TGI [4] was over 100 µM, the TGI [5] was over 100 µM and the TGI [6] was over 100 µM. The TGI [7] was over 100 µM, the TGI [8] was over 100 µM and the TGI [9] was over 100 µM.

Work on O=[N+]([O-])c1ccc(-n2nnc(C3=NCCN3)c2-c2ccccc2)cc1 yielded a TGI [1] of over 100 µM, a TGI [2] of over 100 µM and a TGI [3] of over 100 µM. The TGI [4] was over 100 µM, the TGI [5] was over 100 µM and the TGI [6] was over 100 µM. The TGI [7] was over 100 µM, the TGI [8] was over 100 µM and the TGI [9] was over 100 µM.

Work on C[C@H](OCc1ccccc1)C(=O)N1CCS(=O)(=O)N2CCC[C@@H]2C1=O yielded a TGI [1] of over 100 µM, a TGI [3] of 94.7 µM and a TGI [4] of over 100 µM. It also gave a TGI [5] of over 100 µM, a TGI [6] of over 100 µM and a TGI [7] of over 100 µM. It also gave a TGI [8] of over 100 µM and a TGI [9] of over 100 µM.

O=C(O)CC[C@H](NC(=O)c1ccc(-n2nc3ccc(O)cc3nc2=O)cc1)C(=O)O gave a TGI [1] of over 100 µM, a TGI [2] of over 100 µM and a TGI [4] of over 100 µM. The TGI [5] was over 100 µM, the TGI [6] was over 100 µM and the TGI [7] was over 100 µM. For the same molecule, the TGI [8] was over 100 µM and the TGI [9] was over 100 µM.

In the case of CC[C@@]1(O)C(=O)OCc2c1cc1n(c2=O)Cc2cc3cc4c(cc3nc2-1)OCO4, the GI50 [1] is reported as under 1 nM, the TGI [1] is reported as 0.136 µM and 1.27 µM and the TGI [2] is reported as 0.195 µM. For the same molecule, the GI50 [3] was 114 nM, the TGI [3] was 0.461 µM and 0.657 µM and the TGI [4] was over 58.9 µM. For the same molecule, the GI50 [5] was 111 nM, the TGI [5] was 2.79 µM and 17.3 µM and the GI50 [6] was 1.37 nM. For the same molecule, the TGI [6] was 0.0685 µM and 0.114 µM, the GI50 [7] was 112 nM and the TGI [7] was over 100 µM. For the same molecule, the TGI [8] was 0.0721 µM and < 0.0281 µM, the GI50 [9] was 35.3 nM and < 18.8 nM and the TGI [9] was 0.369 µM.

Molecule C=C1CC2OC(=O)C(=C)C2C(O)C2C(=C)CCC12 (stereo not given) has a TGI [1] of 14.5 µM, a TGI [2] of 22.2 µM and a TGI [5] of 28 µM. It also gave a TGI [6] of 17.5 µM, a TGI [7] of 30.9 µM and a TGI [8] of 25.3 µM. The TGI [9] was 22.6 µM.

In the case of OC1(C23CC4CC(CC(C4)C2)C3)CSCC1(O)C12CC3CC(CC(C3)C1)C2 (stereo not given), the TGI [1] is reported as over 100 µM, the TGI [2] is reported as over 100 µM and the TGI [3] is reported as over 100 µM. The TGI [5] was over 100 µM, the TGI [7] was over 100 µM and the TGI [8] was over 100 µM. For the same molecule, the TGI [9] was over 100 µM.

Molecule O=C1C(c2ccccc2)=C(O)c2cccc3cccc1c23 has a TGI [1] of over 100 µM, a TGI [2] of over 100 µM and a TGI [3] of over 100 µM. It also gave a TGI [4] of over 100 µM, a TGI [5] of over 100 µM and a TGI [6] of over 100 µM. The TGI [8] was over 100 µM and the TGI [9] was over 100 µM.

Work on COc1c(O)c2c3c(cc(C)cc3c1C(C)C)OC2 yielded a TGI [1] of over 100 µM, a TGI [2] of over 100 µM and a TGI [3] of over 100 µM. It also gave a TGI [4] of over 100 µM, a TGI [5] of over 100 µM and a TGI [7] of over 100 µM. It also gave a TGI [8] of over 100 µM and a TGI [9] of over 100 µM.

COc1ccc2c(c1)C(=O)c1ccc(OC)cc1C2=S gave a TGI [1] of over 100 µM, a TGI [2] of over 100 µM and a TGI [3] of over 100 µM. The TGI [4] was over 100 µM, the TGI [5] was over 100 µM and the TGI [6] was over 100 µM. It also gave a TGI [7] of over 100 µM, a TGI [8] of over 100 µM and a TGI [9] of over 100 µM.

In the case of Cc1ccccc1C1OC(=O)c2ccc3ccccc3c21 (stereo not given), the TGI [1] is reported as 7.14 µM, the TGI [2] is reported as 12.4 µM and the TGI [3] is reported as 9.69 µM. The TGI [4] was 9.44 µM, the TGI [5] was over 31.6 µM and the TGI [6] was 8.51 µM. It also gave a TGI [7] of 16.8 µM, a TGI [8] of 13 µM and a TGI [9] of 13.7 µM.

For CCOC(C[C@H](O[Si](C)(C)C(C)(C)C)[C@H]1COC(=S)S1)OCC, the TGI [1] was over 100 µM, the TGI [2] was 73.9 µM and the TGI [3] was 66.7 µM. The TGI [4] was over 100 µM, the TGI [5] was over 100 µM and the TGI [8] was over 100 µM. The TGI [9] was over 100 µM.

Molecule COc1cc2c[n+](C)c3c4cc(OC)c(OC(C)C)cc4ccc3c2cc1OC has a TGI [1] of over 100 µM, a TGI [2] of 97.6 µM and a TGI [4] of over 100 µM. It also gave a TGI [5] of over 100 µM, a TGI [7] of over 100 µM and a TGI [8] of over 100 µM. The TGI [9] was over 100 µM.

O=C1CCCCC1S(=O)(=O)c1ccccc1 (stereo not given) showed a TGI [1] of over 100 µM, a TGI [2] of over 100 µM and a TGI [3] of over 100 µM. The TGI [4] was over 100 µM, the TGI [5] was over 100 µM and the TGI [6] was over 100 µM. For the same molecule, the TGI [7] was over 100 µM, the TGI [8] was over 100 µM and the TGI [9] was over 100 µM.

O=S(=O)(/C=C/c1ccc(F)cc1)Cc1ccc(CS(=O)(=O)/C=C/c2ccc(F)cc2)cc1 was tested, and the TGI [1] was over 100 µM, the TGI [2] was over 100 µM and the TGI [3] was over 100 µM. For the same molecule, the TGI [4] was over 100 µM, the TGI [5] was over 100 µM and the TGI [7] was over 100 µM. It also gave a TGI [8] of over 100 µM and a TGI [9] of over 100 µM.

NNC(=O)C1CCC(=O)N1S(=O)(=O)c1ccccc1 (stereo not given) showed a TGI [1] of over 100 µM, a TGI [2] of over 100 µM and a TGI [3] of over 100 µM. It also gave a TGI [4] of over 100 µM, a TGI [5] of over 100 µM and a TGI [7] of over 100 µM. For the same molecule, the TGI [8] was over 100 µM and the TGI [9] was over 100 µM.

CCCCCCCCCCCCCCCC(=O)OCC1OC(n2cc(F)c(=O)[nH]c2=O)C(N)C(O)C1O (stereo not given) gave a TGI [1] of 34.4 µM, a TGI [3] of 33.5 µM and a TGI [5] of 46.5 µM. It also gave a TGI [6] of 61.3 µM, a TGI [7] of 37.1 µM and a TGI [8] of 33.1 µM. For the same molecule, the TGI [9] was 33.3 µM.

— PubChem BioAssay (NCI)
